EC50 data for 25 molecules are collected here from patent US11345708B2, “Substituted imidazo[1,2-a]imidazoles as modulators of metabotropic glutamate receptor 4 activity” (Hoffmann-La Roche Inc., priority 2017, dated 2022).

The target in the experiment is T1, human mGlu4 receptor (Homo sapiens, UniProt Q14833).
T1 construct: expressed in transfected cells; host or cells: HEK-293 (monoclonal, stably transfected)
T1 sequence (Q14833 33-912): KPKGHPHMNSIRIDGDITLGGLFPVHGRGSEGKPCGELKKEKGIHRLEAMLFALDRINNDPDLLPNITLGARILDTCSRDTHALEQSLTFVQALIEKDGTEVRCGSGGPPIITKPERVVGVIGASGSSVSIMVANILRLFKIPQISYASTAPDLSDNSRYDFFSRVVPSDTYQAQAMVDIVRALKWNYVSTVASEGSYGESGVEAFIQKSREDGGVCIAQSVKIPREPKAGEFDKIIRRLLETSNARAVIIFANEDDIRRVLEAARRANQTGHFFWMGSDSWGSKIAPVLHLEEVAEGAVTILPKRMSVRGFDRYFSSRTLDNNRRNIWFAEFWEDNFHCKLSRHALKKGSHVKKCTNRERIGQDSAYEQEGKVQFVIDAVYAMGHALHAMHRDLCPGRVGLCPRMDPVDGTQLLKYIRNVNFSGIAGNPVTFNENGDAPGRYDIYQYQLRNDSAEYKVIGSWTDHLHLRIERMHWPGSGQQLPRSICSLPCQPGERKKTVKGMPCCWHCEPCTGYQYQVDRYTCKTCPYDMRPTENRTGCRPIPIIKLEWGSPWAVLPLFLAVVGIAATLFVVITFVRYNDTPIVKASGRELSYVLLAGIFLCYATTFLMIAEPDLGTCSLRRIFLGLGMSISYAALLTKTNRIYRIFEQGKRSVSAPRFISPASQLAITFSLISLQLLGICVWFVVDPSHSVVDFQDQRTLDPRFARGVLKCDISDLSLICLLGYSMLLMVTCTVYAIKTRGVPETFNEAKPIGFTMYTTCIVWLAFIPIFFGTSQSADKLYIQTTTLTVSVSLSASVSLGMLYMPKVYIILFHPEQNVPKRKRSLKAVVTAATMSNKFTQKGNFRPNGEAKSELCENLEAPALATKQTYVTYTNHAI
Kind of experiment: Ca2+ mobilization in vitro assay on recombinant human mGlu4 expressed in HEK293 cells. The format is cell-based. As to conditions: HEK-293 cells stably expressing human mGlu4; L-AP4 added at EC20; Fluo-4 fluorescence; read-out: EC50 (uM) mGlu4 PAM. The procedure:
Determination of EC50 Values Using a Ca2+ Mobilization In Vitro Assay on Recombinant Human mGlu4 Expressed in HEK293 Cells:
A monoclonal HEK-293 cell line stably transfected with a cDNA encoding for the human mGlu4 receptor was generated; for the work with mGlu4 Positive Allosteric Modulators (PAMs), a cell line with low receptor expression levels and low constitutive receptor activity was selected to allow the differentiation of agonistic versus PAM activity. Cells were cultured according to standard protocols (Freshney, 2000) in Dulbecco's Modified Eagle Medium with high glucose supplemented with 1 mM glutamine, 10% (vol/vol) heat-inactivated bovine calf serum, Penicillin/Streptomycin, 50 μg/ml hygromycin and 15 μg/ml blasticidin (all cell culture reagents and antibiotics from Invitrogen, Basel, Switzerland).
About 24 hrs before an experiment, 5×10^4 cells/well were seeded in poly-D-lysine coated, black/clear-bottomed 96-well plates. The cells were loaded with 2.5 μM Fluo-4 AM in loading buffer (1×HBSS, 20 mM HEPES) for 1 hr at 37° C. and washed five times with loading buffer. The cells were transferred into a Functional Drug Screening System 7000 (Hamamatsu, Paris, France), and 11 half logarithmic serial dilutions of test compound at 37° C. were added and the cells were incubated for 10-30 min. with on-line recording of fluorescence. Following this pre-incubation step, the agonist (2S)-2-amino-4-phosphonobutanoic acid (L-AP4) was added to the cells at a concentration corresponding to EC20 with on-line recording of fluorescence; in order to account for day-to-day variations in the responsiveness of cells, the EC20 of L-AP4 was determined immediately ahead of each experiment by recording of a full dose-response curve of L-AP4.
Responses were measured as peak increase in fluorescence minus basal (i.e. fluorescence without addition of L-AP4), normalized to the maximal stimulatory effect obtained with saturating concentrations of L-AP4. Graphs were plotted with the % maximal stimulatory using XLfit, a curve fitting program that iteratively plots the data using Levenburg Marquardt algorithm. The single site competition analysis equation used was y=A+((B−A)/(1+((x/C)D))), where y is the % maximal stimulatory effect, A is the minimum y, B is the maximum y, C is the EC50, x is the log 10 of the concentration of the competing compound and D is the slope of the curve (the Hill Coefficient). From these curves the EC50 (drug concentration at which 50% of the maximal receptor activation was achieved), the Hill coefficient as well as the maximal response in % of the maximal stimulatory effect obtained with saturating concentrations of L-AP4 were calculated (see Fig. 1).
A depression of the signal observed after addition of the EC20 concentration of L-AP4 was indicative of an inhibitory activity of the test compound.
Background: Calcium assays in cells follow changes in intracellular calcium, usually with a dye or a luminescent sensor.
Take “7′-[2,6-difluoro-4-[2-(3-pyridyl)ethynyl]phenyl]-3′-(2-methylpyrazol-3-yl)spiro[cyclopropane-1,5′-imidazo[1,2-a]imidazole]-6′-one [Example 30]”: the EC50 (usually the concentration at which the effect is half-maximal) is 0.143 µM. Then `CC1C(=O)N(c2c(F)cc(C#Cc3ccccc3)cc2F)c2nccn21` (single isomer, unassigned; enantiomer 1) [Example 3, 1-(2,6-difluoro-4-(phenylethynyl)phenyl)-3-methyl-1H-imidazo[1,2-a]imidazol-2(3H)-one (enantiomer 1)], with 0.453 µM. With `CC1C(=O)N(c2c(F)cc(C#Cc3ccccc3)cc2F)c2nccn21` (single isomer, unassigned; enantiomer 2) [Example 4, 1-(2,6-difluoro-4-(phenylethynyl)phenyl)-3-methyl-1H-imidazo[1,2-a]imidazol-2(3H)-one (enantiomer 2)], the 50% effective concentration (EC50) is 0.758 µM. For `O=C1N(c2c(F)cc(C#Cc3ccccc3)cc2F)c2nccn2C12CC2` [Example 1, 3-[2,6-Difluoro-4-(2-phenylethynyl)phenyl]-2,3-dihydrospiro[[1,3]diazolo[1,2-a]imidazole-1,1′-cyclopropane]-2-one] the value was 0.178 µM; for `CC1(C)C(=O)N(c2c(F)cc(C#Cc3ccccc3)cc2Cl)c2nccn21` [Example 2, 1-(2-chloro-6-fluoro-4-(phenylethynyl)phenyl)-3,3-dimethyl-1H-imidazo[1,2-a]imidazol-2(3H)-one], 0.359 µM. Then `CC1(C)C(=O)N(c2c(F)cc(C#Cc3ccccc3)cc2F)c2nccn21` [Example 5, 1-(2,6-difluoro-4-(phenylethynyl)phenyl)-3,3-dimethyl-1H-imidazo[1,2-a]imidazol-2(3H)-one], with 0.468 µM.

Regarding `CC(F)(F)c1ccc(-c2cc(F)c(N3C(=O)C4(CC4)n4ccnc43)c(F)c2)cc1` [Example 6, 1′-(4′-(1,1-difluoroethyl)-3,5-difluoro-[1,1′-biphenyl]-4-yl)spiro[cyclopropane-1,3′-imidazo[1,2-a]imidazol]-2′(1′H)-one], the concentration giving a half-maximal response (EC50) was 0.383 µM. For `O=C(Nc1cc(F)c(N2C(=O)C3(CC3)n3ccnc32)c(F)c1)c1ccccn1` [Example 7, N-[3,5-difluoro-4-(6′-oxospiro[cyclopropane-1,5′-imidazo[1,2-a]imidazole]-7′-yl)phenyl]pyridine-2-carboxamide] the value was 0.541 µM; for `CC1(C)C(=O)N(c2c(F)cc(C#Cc3ccccc3)cc2F)c2ncc(I)n21` [Example 8, 1-(2,6-difluoro-4-(phenylethynyl)phenyl)-5-iodo-3,3-dimethyl-1H-imidazo[1,2-a]imidazol-2(3H)-one], 0.418 µM; for `O=C1N(c2c(F)cc(C#Cc3ccccc3)cc2F)c2ncc(I)n2C12CC2` [Example 9, 3-[2,6-difluoro-4-(2-phenylethynyl)phenyl]-6-iodo-2,3-dihydrospiro[[1,3]diazolo[1,2-a]imidazole-1,1′-cyclopropane]-2-one], 0.245 µM. Turning to `CC1(C)C(=O)N(c2c(F)cc(C#Cc3ccccc3)cc2Cl)c2ncc(I)n21` [Example 10, 1-(2-chloro-6-fluoro-4-(phenylethynyl)phenyl)-5-iodo-3,3-dimethyl-1H-imidazo[1,2-a]imidazol-2(3H)-one], the EC50 worked out at 0.371 µM.

Turning to `O=C(Nc1cc(F)c(N2C(=O)C3(CC3)n3c(-c4ccccn4)cnc32)c(F)c1)c1ccccn1` [Example 11, N-[3,5-difluoro-4-[6′-oxo-3′-(2-pyridyl)spiro[cyclopropane-1,5′-imidazo[1,2-a]imidazole]-7′-yl]phenyl]pyridine-2-carboxamide], the concentration giving a half-maximal response (EC50) was determined as 0.059 µM. For `O=C1N(c2c(F)cc(C#Cc3ccccc3)cc2F)c2ncc(-c3ccccn3)n2C12CC2` [Example 12, 3-[2,6-Difluoro-4-(2-phenylethynyl)phenyl]-6-(pyridin-2-yl)-2,3-dihydrospiro[[1,3]diazolo[1,2-a]imidazole-1,1′-cyclopropane]-2-one] the value was 0.076 µM; for `O=C(Nc1cc(F)c(N2C(=O)C3(CC3)n3c(-c4ccncn4)cnc32)c(F)c1)c1ccccn1` [Example 13, N-[3,5-difluoro-4-(6′-oxo-3′-pyrimidin-4-yl-spiro[cyclopropane-1,5′-imidazo[1,2-a]imidazole]-7′-yl)phenyl]pyridine-2-carboxamide], 0.077 µM; for `Cn1cnc(-c2cnc3n2C2(CC2)C(=O)N3c2c(F)cc(C#Cc3ccccc3)cc2F)c1` [Example 14, 7′-[2,6-difluoro-4-(2-phenylethynyl)phenyl]-3′-(1-methylimidazol-4-yl)spiro[cyclopropane-1,5′-imidazo[1,2-a]imidazole]-6′-one], 0.12 µM. Then `CC(C)(C)c1cnn(-c2cc(F)c(N3C(=O)C4(CC4)n4c(-c5ccncn5)cnc43)c(F)c2)c1` [Example 15, 7′-[4-(4-tert-butylpyrazol-1-yl)-2,6-difluoro-phenyl]-3′-pyrimidin-4-yl-spiro[cyclopropane-1,5′-imidazo[1,2-a]imidazole]-6′-one], with 0.232 µM. For `O=C1N(c2c(F)cc(C#Cc3cccnc3)cc2F)c2ncc(-c3ccncn3)n2C12CC2` [Example 16, 7′-[2,6-difluoro-4-[2-(3-pyridyl)ethynyl]phenyl]-3′-pyrimidin-4-yl-spiro[cyclopropane-1,5′-imidazo[1,2-a]imidazole]-6′-one] the value was 0.237 µM; for `O=C1N(c2c(F)cc(C#Cc3cccnc3)cc2F)c2ncc(-c3ccccn3)n2C12CC2` [Example 17, 7′-[2,6-difluoro-4-[2-(3-pyridyl)ethynyl]phenyl]-3′-(2-pyridyl)spiro[cyclopropane-1,5′-imidazo[1,2-a]imidazole]-6′-one], 0.283 µM; for `O=C1N(c2c(F)cc(C#Cc3ccccc3)cc2F)c2ncc(-c3ccncn3)n2C12CC2` [Example 18, 3′-[2,6-Difluoro-4-(2-phenylethynyl)phenyl]-6′-(pyrimidin-4-yl)-2′,3′-dihydrospiro[cyclopropane-1,1′-imidazo-[1,2-a][1,3]diazole]-2′-one], 0.361 µM.

As for `CC(C)(C)c1cnn(-c2cc(F)c(N3C(=O)C4(CC4)n4c(-c5ccccn5)cnc43)c(F)c2)c1` [Example 19, 7′-[4-(4-tert-butylpyrazol-1-yl)-2,6-difluoro-phenyl]-3′-(2-pyridyl)spiro[cyclopropane-1,5′-imidazo[1,2-a]imidazole]-6′-one], the EC50 was 0.426 µM. For `Cn1cnc(-c2cnc3n2C2(CC2)C(=O)N3c2c(F)cc(C#Cc3cccnc3)cc2F)c1` [Example 20, 7′-[2,6-difluoro-4-[2-(3-pyridyl)ethynyl]phenyl]-3′-(1-methylimidazol-4-yl)spiro[cyclopropane-1,5′-imidazo[1,2-a]imidazole]-6′-one] the value was 0.442 µM; for `O=C1N(c2c(F)cc(-n3cc(C(F)(F)F)cn3)cc2F)c2ncc(-c3ccccn3)n2C12CC2` [Example 21, 7′-[2,6-difluoro-4-[4-(trifluoromethyl)pyrazol-1-yl]phenyl]-3′-(2-pyridyl)spiro[cyclopropane-1,5′-imidazo[1,2-a]imidazole]-6′-one], 0.596 µM. For `O=C(Nc1ccccn1)c1cc(F)c(N2C(=O)C3(CC3)n3c(-c4ccccn4)cnc32)c(F)c1` [Example 22, 3,5-difluoro-4-[6′-oxo-3′-(2-pyridyl)spiro[cyclopropane-1,5′-imidazo[1,2-a]imidazole]-7′-yl]-N-(2-pyridyl)benzamide] the value was 0.61 µM; for `O=C1N(c2c(F)cc(-n3cc(C(F)(F)F)cn3)cc2F)c2ncc(-c3ccncn3)n2C12CC2` [Example 23, 7′-[2,6-difluoro-4-[4-(trifluoromethyl)pyrazol-1-yl]phenyl]-3′-pyrimidin-4-yl-spiro[cyclopropane-1,5′-imidazo[1,2-a]imidazole]-6′-one], 0.755 µM; for `O=C1N(c2c(F)cc(C#Cc3ccccc3)cc2F)c2ncc(-c3ccccc3)n2C12CC2` [Example 24, 3-[2,6-Difluoro-4-(2-phenylethynyl)phenyl]-6-phenyl-2,3-dihydrospiro[[1,3]diazolo[1,2-a]imidazole-1,1′-cyclopropane]-2-one], 0.073 µM.
